Results: patent US20230157996A1, “SMALL-MOLECULE INHIBITOR TARGETING EB VIRUS NUCLEAR ANTIGEN PROTEIN, PREPARATION METHOD AND USE THEREOF” (priority 2020, published 2023)

System: C666-1 cells
Test: C666-1 cell viability single concentration (50 μM) inhibition rate (Resazurin)
Assay type: cell-based
Settings: 50 μM compound, 72 hours, C666-1 cells; for inhibition at 50 µM: Homo sapiens, C6661, 72 h, read-out: C666-1 cell viability single concentration (50 μM) inhibition rate, Ratio* (Inh %)
In short: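 EBV-positive C666-1 cells (5×10^3/well), pre-cultured 24 h, were exposed to compound at 50 μmol/L final for 72 h at 37° C, 5% CO2, in duplicate. Viability by resazurin (3 h, ex 560/em 590 nm); inhibition rate computed relative to DMSO control and medium-only blank.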

Compound	inhibition at 50 µM [%]	C666-1 cell viability single concentration (50 μM) inhibition rate, Ratio* (Inh %)
COC(=O)c1cccc(N2CC(Oc3ccc(CNC(=O)NC4CC4)cc3)C2)c1-n1cccc1 [Example 242, Methyl 3-(3-(4-((3-cyclopropylureido)methyl)phenoxy)azetidin-1-yl)-2-(1H-pyrrol-1-yl)benzoate]	10 to 30	–
COC(=O)c1cccc(N2CC(Oc3ccc(COc4cccnc4)cc3)C2)c1-n1cccc1 [Example 243, Methyl 3-(3-(4-((pyridin-3-yl-oxy)methyl)phenoxy)azetidin-1-yl)-2-(1H-pyrrol-1-yl)benzoate]	> 50	–
O=C(O)c1cccc(N2CC(Oc3ccc(COc4cccnc4)cc3)C2)c1-n1cccc1 [Example 244, 3-(3-(4-((pyridin-3-yl-oxy)methyl)phenoxy)azetidin-1-yl)-2-(1H-pyrrol-1-yl)benzoic acid]	30 to 50	–
COC(=O)c1cccc(N2CC(Oc3ccc(COc4ccc(F)cc4)cc3)C2)c1-n1cccc1 [Example 245, Methyl 3-(3-(4-((4-fluorophenoxy)methyl)phenoxy)azetidin-1-yl)-2-(1H-pyrrol-1-yl)benzoate]	< 10	–
O=C(O)c1cccc(N2CC(Oc3ccc(COc4ccc(F)cc4)cc3)C2)c1-n1cccc1 [Example 246, 3-(3-(4-((4-fluorophenoxy)methyl)phenoxy)azetidin-1-yl)-2-(1H-pyrrol-1-yl)benzoic acid]	< 10	–
COC(=O)c1cccc(N2CC(Oc3ccc(COc4cccc(F)c4)cc3)C2)c1-n1cccc1 [Example 247, Methyl 3-(3-(4-((3-fluorophenoxy)methyl)phenoxy)azetidin-1-yl)-2-(1H-pyrrol-1-yl)benzoate]	10 to 30	–
O=C(O)c1cccc(N2CC(Oc3ccc(COc4cccc(F)c4)cc3)C2)c1-n1cccc1 [Example 248, 3-(3-(4-((3-fluorophenoxy)methyl)phenoxy)azetidin-1-yl)-2-(1H-pyrrol-1-yl)benzoic acid]	< 10	–
COC(=O)c1cccc(N2CC(Oc3ccc(COc4cccc(C(F)(F)F)c4)cc3)C2)c1-n1cccc1 [Example 249, Methyl 3-(3-(4-((3-(trifluoromethyl)phenoxy)methyl)phenoxy)azetidin-1-yl)-2-(1H-pyrrol-1-yl)benzoate]	< 10	–
O=C(O)c1cccc(N2CC(Oc3ccc(COc4cccc(C(F)(F)F)c4)cc3)C2)c1-n1cccc1 [Example 250, 3-(3-(4-((3-(trifluoromethyl)phenoxy)methyl)phenoxy)azetidin-1-yl)-2-(1H-pyrrol-1-yl)benzoic acid]	10 to 30	–
COC(=O)c1cccc(N2CC(Oc3ccc(CO)c(C)c3)C2)c1-n1cccc1 [Example 251, Methyl 3-(3-(4-(hydroxymethyl)-3-methylphenoxy)azetidin-1-yl)-2-(1H-pyrrol-1-yl)benzoate]	> 50	–
Cc1cc(OC2CN(c3cccc(C(=O)O)c3-n3cccc3)C2)ccc1CO [Example 252, 3-(3-(4-(hydroxymethyl)-3-methylphenoxy)azetidin-1-yl)-2-(1H-pyrrol-1-yl)benzoic acid]	< 10	–
COC(=O)c1cccc(N2CC(Oc3ccc(N)cc3)C2)c1-n1cccc1 [Example 253, Methyl 3-(3-(4-aminophenoxy)azetidin-1-yl)-2-(1H-pyrrol-1-yl)benzoate]	10 to 30	–
Nc1ccc(OC2CN(c3cccc(C(=O)O)c3-n3cccc3)C2)cc1 [Example 254, 3-(3-(4-aminophenoxy)azetidin-1-yl)-2-(1H-pyrrol-1-yl)benzoic acid]	< 10	–
COC(=O)c1cccc(N2CC(Oc3ccccc3N)C2)c1-n1cccc1 [Example 255, Methyl 3-(3-(2-aminophenoxy)azetidin-1-yl)-2-(1H-pyrrol-1-yl)benzoate]	> 50	–
Nc1ccccc1OC1CN(c2cccc(C(=O)O)c2-n2cccc2)C1 [Example 256, 3-(3-(2-aminophenoxy)azetidin-1-yl)-2-(1H-pyrrol-1-yl)benzoic acid]	> 50	–
COC(=O)c1cccc(N2CC(Oc3ccccc3)C2)c1-n1cccc1 [Example 257, Methyl 3-((3-phenoxy)azetidin-1-yl)-2-(1H-pyrrol-1-yl)benzoate]	–	++ (10%-30% ++)
COC(=O)c1cccc(N2CC(Oc3cccnc3)C2)c1-n1cccc1 [Example 259, Methyl 3-(3-(pyridin-3-yloxy)azetidin-1-yl)-2-(1H-pyrrol-1-yl)benzoate]	10 to 30	–
O=C(O)c1cccc(N2CC(Oc3cccnc3)C2)c1-n1cccc1 [Example 260, 3-(3-(pyridin-3-yloxy)azetidin-1-yl)-2-(1H-pyrrol-1-yl)benzoic acid]	< 10	–
COC(=O)c1cccc(N2CC(Oc3ccc(-c4csc(NS(C)(=O)=O)n4)cc3)C2)c1-n1cccc1 [Example 261, Methyl 3-(3-(4-(2-(methylsulfonamido)thiazol-4-yl)phenoxy)azetidin-1-yl)-2-(1H-pyrrol-1-yl)benzoate]	< 10	–
CS(=O)(=O)Nc1nc(-c2ccc(OC3CN(c4cccc(C(=O)O)c4-n4cccc4)C3)cc2)cs1 [Example 262, 3-(3-(4-(2-(methylsulfonamido)thiazol-4-yl)phenoxy)azetidin-1-yl)-2-(1H-pyrrol-1-yl)benzoic acid]	< 10	–
COC(=O)c1cccc(N2CC(Oc3ccc(C(=O)N4CCOCC4)cc3)C2)c1-n1cccc1 [Example 265, Methyl 3-(3-(4-(morpholinyl-4-carbonyl)phenoxy)azetidin-1-yl)-2-(1H-pyrrol-1-yl)benzoate]	10 to 30	–

Compound	inhibition at 50 µM [%]	C666-1 cell viability single concentration (50 μM) inhibition rate, Ratio* (Inh %)
COC(=O)c1cccc(N2CC(Oc3ccc(C(=O)Nc4ccc(F)cc4)cc3)C2)c1-n1cccc1 [Example 267, Methyl 3-(3-(4-((4-fluorophenyl)carbamoyl)phenoxy)azetidin-1-yl)-2-(1H-pyrrol-1-yl)benzoate]	< 10	–
O=C(Nc1ccc(F)cc1)c1ccc(OC2CN(c3cccc(C(=O)O)c3-n3cccc3)C2)cc1 [Example 268, 3-(3-(4-((4-fluorophenyl)carbamoyl)phenoxy)azetidin-1-yl)-2-(1H-pyrrol-1-yl)benzoic acid]	< 10	–
COC(=O)c1cccc(-c2cn(-c3ccc(CO)cc3)nn2)c1-c1ccc2cc[nH]c2c1 [Example 269, Methyl 3-(1-(4-(hydroxymethyl)phenyl)-1H-1,2,3-triazol-4-yl)-2-(1H-indol-6-yl)benzoate]	30 to 50	–
COC(=O)c1cccc(C#CN2Cc3ccccc3S2(=O)=O)c1-n1cccc1 [Example 270]	< 10	–
COC(=O)c1cccc(C#CN(Cc2ccccc2)S(=O)(=O)c2ccc(C)cc2)c1-n1cccc1 [Example 271, Methyl 3-(((N-benzyl-4-methylphenyl)sulfonamido)ethynyl)-2-(1H-pyrrol-1-yl)benzoate]	> 50	–
COC(=O)c1cccc(C2CC2c2ccccc2)c1-n1cccc1 (centres unmarked) [Example 272, Methyl 3-(2-phenylcyclopropyl)-2-(1H-pyrrol-1-yl)benzoate]	10 to 30	–
COc1ccc(C(O)C23CC(c4cccc(C(=O)O)c4)(C2)C3)cc1 (centres unmarked) [Example 273, 3-(3-(hydroxyl(4-methoxyphenyl)methyl)bicyclo[1. 1.1]pentan-1-yl)benzoic acid]	< 10	–
COC(=O)c1cccc(N2CC3(CN(c4ccccc4)C3)C2)c1-n1cccc1 [Example 274, Methyl 3-(6-phenyl-2,6-diazaspiro[3.3]heptan-2-yl)-2-(1H-pyrrol-1-yl)benzoate]	< 10	–
COC(=O)c1cccc(N2CC3(CN(c4ccccc4N)C3)C2)c1N [Example 275, Methyl 2-amino-3-(6-(2-aminophenyl)-2,6-diazaspiro[3.3]heptan-2-yl)benzoate]	10 to 30	–
O=C(O)c1cccc(N2CC(Oc3ccc(CO)cc3)C2)c1-c1ccco1 [Example 276]	< 10	–
COC(=O)c1cccc(N2CC(Oc3ccc(CO)cc3)C2)c1-c1ccc2ccoc2c1 [Example 277]	10 to 30	–
N#Cc1cccc(-c2c(C(=O)O)cccc2N2CC(Oc3ccc(CO)cc3)C2)c1 [Example 278]	10 to 30	–
COC(=O)c1cccc(N2CC(Oc3ccc(CO)cc3)C2)c1-c1cccc(C(=O)O)c1 [Example 279]	10 to 30	–
CS(=O)(=O)Nc1cccc(-c2c(C(=O)O)cccc2N2CC(Oc3ccc(CO)cc3)C2)c1 [Example 280]	< 10	–
N#Cc1cc(-c2c(C(=O)O)cccc2N2CC(Oc3ccc(CO)cc3)C2)ccc1F [Example 281, 3′-cyano-4′-fluoro-6-(3-(4-(hydroxymethyl)phenoxy)azetidin-1-yl)-[1,1′-biphenyl]-2-formic acid]	< 10	–
COC(=O)c1cccc(N2CC(Oc3cccc(C(=O)O)c3)C2)c1N [Example 282, Methyl 2-amino-3-(3-(3-carboxylphenoxy)azetidin-1-yl)benzoate]	< 10	–
COC(=O)c1cccc(N2CC(Oc3ccc(CNS(=O)(=O)c4ccc(C)cc4)cc3)C2)c1-n1cccc1 [Example 283, Methyl 3-(3-(4-(((4-methylphenyl)sulfonamido)methyl)phenoxy)azetidin-1-yl)-2-(1H-pyrrol-1-yl)benzoate]	> 50	–
COC(=O)c1cccc(N2CC(Oc3cc(F)nc(F)c3)C2)c1-n1cccc1 [Example 284, Methyl 3-(3-((2,6-difluoropyridin-4-yl)oxy)azetidin-1-yl)-2-(1H-pyrrol-1-yl)benzoate]	< 10	–
O=C(O)c1cccc(N2CC(Oc3cc(F)nc(F)c3)C2)c1-n1cccc1 [Example 285, 3-(3-((2,6-difluoropyridin-4-yl)oxy)azetidin-1-yl)-2-(1H-pyrrol-1-yl)benzoic acid]	< 10	–
COC(=O)c1cccc(N2CC(Oc3ccc([N+](=O)[O-])cc3)C2)c1-n1cccc1 [Example 286, Methyl 3-(3-(4-nitrophenoxy)azetidin-1-yl)-2-(1H-pyrrol-1-yl)benzoate]	10 to 30	–
